Test results as given in ChEMBL document CHEMBL4765391, “Design, synthesis, and Structure-Activity Relationships (SAR) of 3-vinylindazole derivatives as new selective tropomyosin receptor kinases (Trk) inhibitors” (Eur J Med Chem, 2020).
Activity calls are given as the source filed them. No cut-off for these calls is given here.

Assays:
BaF3 [1] = experiment: Antiproliferative activity against mouse BaF3 cells transfected with wild type CD74-NTRK1 (unknown origin) assessed as cell viability measured after 72 hrs by Micro plate reader method; conditions: BaF3, 72 h
BaF3 [2] = experiment: Antiproliferative activity against mouse BaF3 cells transfected with wild type CD74-NTRK1 (unknown origin) harbouring G667C mutation assessed as cell viability measured after 72 hrs by Micro plate reader method; format: functional, cell-based; conditions: BaF3, 72 h
[3] = target: T1, High affinity nerve growth factor receptor (Homo sapiens, UniProt P04629); experiment: Inhibition of TrkA (unknown origin) in mouse BaF3 cells transfected with wild type CD74-NTK1 assessed as inhibition of PLCgamma 1 expression measured after 6 hrs by Western blot assay; format: cell-based
[4] = target: T1, High affinity nerve growth factor receptor; experiment: Inhibition of TrkA (unknown origin) in mouse BaF3 cells transfected with wild type CD74-NTK1 assessed as inhibition of AKT expression measured after 6 hrs by Western blot assay; format: cell-based; conditions: dose 0.3-200 nM
[5] = target: ALK tyrosine kinase receptor (Homo sapiens, UniProt Q9UM73); experiment: Binding affinity to wild-type human partial length ALK (I1088 to E1409 residues) expressed in mammalian expression system by Kinomescan method relative to control
[6] = target: Muscle, skeletal receptor tyrosine-protein kinase (Homo sapiens, UniProt O15146); experiment: Binding affinity to wild-type human partial length MUSK (M553 to V869 residues) expressed in bacterial expression system by Kinomescan method relative to control
Activated CDC42 kinase 1 = Activated CDC42 kinase 1 (Homo sapiens, UniProt Q07912); experiment: Binding affinity to wild-type human partial length TNK2 (S159 to D474 residues) expressed in bacterial expression system by Kinomescan method relative to control
[7] = Cmax in Sprague-Dawley rat at 10 mg/kg, po measured after 24 hrs by LC-MS/MS analysis; format: ADME, organism-based; set-up: route oral, dose 10 mg/kg, time 24 hrs; conditions: in vivo
[8] = Half life in Sprague-Dawley rat at 10 mg/kg, po measured after 24 hrs by LC-MS/MS analysis; format: ADME, organism-based; conditions: in vivo
[9] = AUC (0 to infinity) in Sprague-Dawley rat at 2 mg/kg, iv measured after 24 hrs by LC-MS/MS analysis; format: ADME, organism-based; set-up: route intravenous, dose 2 mg/kg, time 24 hrs; conditions: in vivo
[10] = Clearance in Sprague-Dawley rat at 2 mg/kg, iv measured after 24 hrs by LC-MS/MS analysis; format: ADME, organism-based; conditions: in vivo
[11] = test system: Receptor-type tyrosine-protein kinase FLT3 (Homo sapiens), P36888 [N841I]; experiment: Binding affinity to FLT3 N841I mutant (unknown origin)
[12] = target: T2, BDNF/NT-3 growth factors receptor (Homo sapiens, UniProt Q16620); conditions: BaF3, dose 0.3-200 nM, time 6.0 hrs
[13] = target: T2, BDNF/NT-3 growth factors receptor; conditions: BaF3, dose 0.3-200 nM, time 6.0 hrs; remark: listed apart in the source
[14] = target: T2, BDNF/NT-3 growth factors receptor; conditions: BaF3, dose 0.3-200 nM, time 6.0 hrs; remark: listed apart in the source
[15] = target: T2, BDNF/NT-3 growth factors receptor; conditions: BaF3, dose 0.3-200 nM, time 6.0 hrs; remark: listed apart in the source

T2 sequence (Q16620 32-822 limits assumed): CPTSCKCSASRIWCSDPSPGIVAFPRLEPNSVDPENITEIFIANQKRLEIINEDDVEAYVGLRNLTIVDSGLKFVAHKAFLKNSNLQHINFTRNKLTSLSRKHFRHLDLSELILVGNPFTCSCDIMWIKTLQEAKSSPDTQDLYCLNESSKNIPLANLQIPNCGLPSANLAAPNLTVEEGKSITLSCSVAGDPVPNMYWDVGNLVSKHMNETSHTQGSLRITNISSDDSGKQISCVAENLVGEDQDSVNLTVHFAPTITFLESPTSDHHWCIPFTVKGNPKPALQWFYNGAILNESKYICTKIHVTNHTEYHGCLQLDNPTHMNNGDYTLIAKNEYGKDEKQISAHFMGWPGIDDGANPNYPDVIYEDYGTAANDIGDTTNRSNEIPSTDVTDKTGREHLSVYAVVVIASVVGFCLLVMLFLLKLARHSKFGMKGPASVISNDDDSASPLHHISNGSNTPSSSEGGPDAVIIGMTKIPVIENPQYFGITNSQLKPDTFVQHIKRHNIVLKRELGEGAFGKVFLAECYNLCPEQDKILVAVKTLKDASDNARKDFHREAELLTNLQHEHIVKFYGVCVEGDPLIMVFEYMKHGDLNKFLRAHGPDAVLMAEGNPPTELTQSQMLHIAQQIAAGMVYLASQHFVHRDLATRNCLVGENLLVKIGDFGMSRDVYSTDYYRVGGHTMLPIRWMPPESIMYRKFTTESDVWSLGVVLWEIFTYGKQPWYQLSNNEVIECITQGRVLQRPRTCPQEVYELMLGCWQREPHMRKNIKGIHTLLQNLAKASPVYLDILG
T1 sequence (P04629 33-796 limits assumed): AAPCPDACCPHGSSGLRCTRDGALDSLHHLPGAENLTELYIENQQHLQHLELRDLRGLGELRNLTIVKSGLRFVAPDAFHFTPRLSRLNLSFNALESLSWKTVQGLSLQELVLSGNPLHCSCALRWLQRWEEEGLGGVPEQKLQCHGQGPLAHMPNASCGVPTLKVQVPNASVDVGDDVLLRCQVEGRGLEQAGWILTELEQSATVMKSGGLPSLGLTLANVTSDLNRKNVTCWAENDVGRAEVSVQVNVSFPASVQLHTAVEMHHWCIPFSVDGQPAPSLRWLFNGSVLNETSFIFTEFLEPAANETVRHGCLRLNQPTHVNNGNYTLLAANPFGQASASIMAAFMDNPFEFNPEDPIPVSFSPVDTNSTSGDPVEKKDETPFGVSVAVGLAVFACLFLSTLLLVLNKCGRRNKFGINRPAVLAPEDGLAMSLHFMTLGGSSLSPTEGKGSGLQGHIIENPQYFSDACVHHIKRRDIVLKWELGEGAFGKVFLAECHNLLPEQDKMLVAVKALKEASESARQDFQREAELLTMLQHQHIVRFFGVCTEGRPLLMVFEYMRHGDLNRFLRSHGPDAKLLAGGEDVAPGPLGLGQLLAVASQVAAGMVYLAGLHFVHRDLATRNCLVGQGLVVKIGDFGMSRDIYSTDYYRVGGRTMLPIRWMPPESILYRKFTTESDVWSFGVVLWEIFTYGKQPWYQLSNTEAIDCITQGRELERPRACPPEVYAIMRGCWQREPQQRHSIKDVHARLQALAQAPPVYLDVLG
Chain of Muscle, skeletal receptor tyrosine-protein kinase (O15146 whole entry, the tested form may be a part): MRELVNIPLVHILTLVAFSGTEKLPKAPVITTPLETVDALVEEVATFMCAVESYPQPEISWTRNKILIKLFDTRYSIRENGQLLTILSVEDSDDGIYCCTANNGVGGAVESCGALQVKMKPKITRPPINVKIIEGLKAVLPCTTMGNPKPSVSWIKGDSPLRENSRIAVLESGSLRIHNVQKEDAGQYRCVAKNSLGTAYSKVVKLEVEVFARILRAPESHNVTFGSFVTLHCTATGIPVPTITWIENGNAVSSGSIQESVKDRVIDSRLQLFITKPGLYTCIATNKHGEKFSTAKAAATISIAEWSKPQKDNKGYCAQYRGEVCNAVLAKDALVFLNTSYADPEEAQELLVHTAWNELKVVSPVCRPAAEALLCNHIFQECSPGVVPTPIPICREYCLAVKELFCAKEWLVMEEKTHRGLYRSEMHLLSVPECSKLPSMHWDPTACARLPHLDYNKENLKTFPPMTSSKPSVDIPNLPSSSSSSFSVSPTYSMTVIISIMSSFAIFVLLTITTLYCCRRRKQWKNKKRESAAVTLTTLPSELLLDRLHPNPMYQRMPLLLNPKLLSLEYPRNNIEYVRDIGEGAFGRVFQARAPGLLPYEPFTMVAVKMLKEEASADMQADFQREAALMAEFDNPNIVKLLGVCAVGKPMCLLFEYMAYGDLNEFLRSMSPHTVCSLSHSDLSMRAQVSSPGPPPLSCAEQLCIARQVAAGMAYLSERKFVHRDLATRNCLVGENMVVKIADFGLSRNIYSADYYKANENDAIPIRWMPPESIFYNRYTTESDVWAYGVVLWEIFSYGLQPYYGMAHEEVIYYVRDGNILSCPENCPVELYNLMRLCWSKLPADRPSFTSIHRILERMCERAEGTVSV
Chain of Activated CDC42 kinase 1 (Q07912 whole entry, the tested form may be a part): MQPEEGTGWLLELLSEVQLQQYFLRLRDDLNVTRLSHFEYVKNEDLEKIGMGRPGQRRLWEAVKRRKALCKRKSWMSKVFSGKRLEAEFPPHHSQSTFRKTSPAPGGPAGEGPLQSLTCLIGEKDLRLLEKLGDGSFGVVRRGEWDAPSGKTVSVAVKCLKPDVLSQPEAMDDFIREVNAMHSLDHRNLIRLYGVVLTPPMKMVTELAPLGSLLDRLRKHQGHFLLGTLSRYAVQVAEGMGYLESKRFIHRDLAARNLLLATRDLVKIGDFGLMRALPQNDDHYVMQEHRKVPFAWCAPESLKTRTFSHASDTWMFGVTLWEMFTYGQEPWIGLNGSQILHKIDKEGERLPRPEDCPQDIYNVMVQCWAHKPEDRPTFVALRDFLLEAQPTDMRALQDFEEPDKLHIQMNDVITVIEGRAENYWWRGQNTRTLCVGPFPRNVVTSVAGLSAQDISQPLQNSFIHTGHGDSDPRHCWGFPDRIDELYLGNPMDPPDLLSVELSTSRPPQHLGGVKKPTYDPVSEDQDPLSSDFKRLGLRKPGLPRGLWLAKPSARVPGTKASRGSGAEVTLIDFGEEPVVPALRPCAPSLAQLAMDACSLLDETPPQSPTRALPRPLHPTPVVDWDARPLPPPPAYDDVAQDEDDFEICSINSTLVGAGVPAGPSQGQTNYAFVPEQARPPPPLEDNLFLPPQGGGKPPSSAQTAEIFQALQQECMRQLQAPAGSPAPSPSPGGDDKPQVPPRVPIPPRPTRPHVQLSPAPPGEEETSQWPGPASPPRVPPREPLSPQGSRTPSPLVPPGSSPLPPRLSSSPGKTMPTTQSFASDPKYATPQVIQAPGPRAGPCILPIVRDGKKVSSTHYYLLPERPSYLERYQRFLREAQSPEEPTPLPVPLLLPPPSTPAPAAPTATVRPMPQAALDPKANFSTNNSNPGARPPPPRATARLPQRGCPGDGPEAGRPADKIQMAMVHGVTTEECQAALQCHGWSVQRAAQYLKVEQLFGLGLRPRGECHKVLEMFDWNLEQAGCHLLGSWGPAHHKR
Chain of ALK tyrosine kinase receptor (Q9UM73 whole entry, the tested form may be a part): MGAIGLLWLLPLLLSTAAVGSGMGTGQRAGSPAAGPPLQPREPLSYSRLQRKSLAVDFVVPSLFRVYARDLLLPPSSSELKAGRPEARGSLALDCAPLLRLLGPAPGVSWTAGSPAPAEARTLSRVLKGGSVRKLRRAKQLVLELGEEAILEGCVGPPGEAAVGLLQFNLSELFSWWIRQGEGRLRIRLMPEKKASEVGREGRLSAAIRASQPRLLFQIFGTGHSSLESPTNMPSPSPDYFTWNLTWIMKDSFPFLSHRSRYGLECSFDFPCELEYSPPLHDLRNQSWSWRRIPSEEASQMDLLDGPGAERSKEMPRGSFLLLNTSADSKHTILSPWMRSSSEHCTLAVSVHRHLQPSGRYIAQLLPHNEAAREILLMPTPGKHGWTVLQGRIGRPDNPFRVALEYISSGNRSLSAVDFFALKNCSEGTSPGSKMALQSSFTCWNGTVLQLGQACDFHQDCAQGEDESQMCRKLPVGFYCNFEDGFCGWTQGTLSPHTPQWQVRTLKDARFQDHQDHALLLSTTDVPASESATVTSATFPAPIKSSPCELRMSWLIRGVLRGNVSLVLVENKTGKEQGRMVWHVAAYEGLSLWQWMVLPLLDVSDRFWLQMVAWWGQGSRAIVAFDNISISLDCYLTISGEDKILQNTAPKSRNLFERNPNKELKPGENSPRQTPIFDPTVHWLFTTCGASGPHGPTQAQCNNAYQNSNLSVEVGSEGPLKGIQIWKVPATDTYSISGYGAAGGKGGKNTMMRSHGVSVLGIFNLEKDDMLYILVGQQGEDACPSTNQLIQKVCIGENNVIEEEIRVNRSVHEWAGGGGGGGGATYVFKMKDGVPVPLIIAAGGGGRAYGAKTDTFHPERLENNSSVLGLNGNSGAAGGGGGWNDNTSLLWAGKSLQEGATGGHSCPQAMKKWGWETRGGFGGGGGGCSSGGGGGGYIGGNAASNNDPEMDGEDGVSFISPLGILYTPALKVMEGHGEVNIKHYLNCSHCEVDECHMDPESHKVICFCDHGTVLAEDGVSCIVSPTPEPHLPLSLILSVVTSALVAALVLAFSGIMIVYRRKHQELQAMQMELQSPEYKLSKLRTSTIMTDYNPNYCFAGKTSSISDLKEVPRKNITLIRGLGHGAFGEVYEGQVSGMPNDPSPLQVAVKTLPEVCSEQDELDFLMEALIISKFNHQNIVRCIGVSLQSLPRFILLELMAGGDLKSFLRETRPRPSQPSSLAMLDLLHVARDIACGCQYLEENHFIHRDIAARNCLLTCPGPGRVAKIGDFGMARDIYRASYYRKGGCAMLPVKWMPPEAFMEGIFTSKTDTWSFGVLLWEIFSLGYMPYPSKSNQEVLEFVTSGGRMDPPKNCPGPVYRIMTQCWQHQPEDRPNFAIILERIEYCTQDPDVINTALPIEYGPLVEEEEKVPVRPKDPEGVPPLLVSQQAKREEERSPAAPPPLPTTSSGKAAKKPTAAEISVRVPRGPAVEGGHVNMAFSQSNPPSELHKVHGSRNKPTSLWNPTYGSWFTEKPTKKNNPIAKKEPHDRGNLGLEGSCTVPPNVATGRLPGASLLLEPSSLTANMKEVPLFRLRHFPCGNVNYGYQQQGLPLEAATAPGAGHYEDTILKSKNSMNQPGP

C[C@@H](Nc1ccc2[nH]nc(/C=C/c3ccccn3)c2c1)c1cc(F)cc(F)c1
IC50 (BaF3 [1]): 15 nM | IC50 (BaF3 [2]): 31 nM | inhibition [3]: Active | inhibition [4]: Active | Kd [5]: 150 nM | Kd [6]: 110 nM | Kd (Activated CDC42 kinase 1): 21 nM | Cmax [7]: 360 nM | half-life [8]: 1.13 h | AUC(0-inf) [9]: 3.69 µM·h | clearance [10]: 24 mL/min/kg | inhibition [11]: Active | inhibition [12]: Active | inhibition [13]: Active | inhibition [14]: Active | inhibition [15]: Active
